Experimental data taken from ChEMBL document CHEMBL1201862, “PubChem BioAssay data set” (2004).
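Dose response: 5 concentrations. Exposure: 48 h. Format: 96-well plates. Endpoint: linear interpolation; highest concentration if not reached. GI50: concentration for 50% inhibition of growth.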 Activity calls are given as the source filed them. Cut-off read from the data, not from the text of the source: active = GI50 up to about 1.1 µM and inactive = higher.

Columns and labels:
Test in all cases: NCI tumour cell line growth inhibition, 48 h
DMS-273 = test system: DMS-273
SK-OV-3 = test system: SK-OV-3
OVCAR-8 = test system: OVCAR-8
HCC 2998 = test system: HCC 2998
SN12C = test system: SN12C
K562 = test system: K562
SF-539 = test system: SF-539
ACHN = test system: ACHN
HOP-92 = test system: HOP-92
OVCAR-4 = test system: OVCAR-4
RPMI-8226 = test system: RPMI-8226
A549 = test system: A549
NCI-H226 = test system: NCI-H226
SK-MEL-5 = test system: SK-MEL-5
UACC-257 = test system: UACC-257
HCT-15 = test system: HCT-15
KM12 = test system: KM12
T47D = test system: T47D
MCF7 = test system: MCF7
DU-145 = test system: DU-145

In the case of `O=C(O)CNS(=O)(=O)c1ccc(NC(=O)c2cccc([N+](=O)[O-])c2)cc1`, the GI50 (DMS-273) is reported as > 100000 nM (inactive), the GI50 (SK-OV-3) is reported as > 100000 nM (inactive) and the GI50 (OVCAR-8) is reported as > 100000 nM (inactive). For the same compound, the GI50 (HCC 2998) was > 100000 nM (inactive), the GI50 (SN12C) was > 100000 nM (inactive) and the GI50 (K562) was > 100000 nM (inactive). For the same compound, the GI50 (SF-539) was > 100000 nM (inactive), the GI50 (ACHN) was > 100000 nM (inactive) and the GI50 (HOP-92) was > 100000 nM (inactive). For the same compound, the GI50 (OVCAR-4) was > 100000 nM (inactive), the GI50 (RPMI-8226) was > 100000 nM (inactive) and the GI50 (A549) was > 100000 nM (inactive). For the same compound, the GI50 (NCI-H226) was > 100000 nM (inactive), the GI50 (SK-MEL-5) was > 100000 nM (inactive) and the GI50 (UACC-257) was > 100000 nM (inactive). The GI50 (HCT-15) was > 100000 nM and the GI50 (KM12) was > 100000 nM (inactive).

With `COc1ccc(C2=CN3CCC[C@H]3C=C2c2cc(O)c(OC)c(OC)c2)cc1OC` the GI50 (DMS-273) was 3.54 nM (active), the GI50 (T47D) was 3.71 nM (active) and the GI50 (SK-OV-3) was 5.64 nM (active). For the same compound, the GI50 (OVCAR-8) was 3.77 nM (active), the GI50 (HCC 2998) was 4.82 nM (active) and the GI50 (SN12C) was 4.03 nM (active). The GI50 (K562) was 3.39 nM (active), the GI50 (SF-539) was 5.05 nM (active) and the GI50 (ACHN) was 3.02 nM (active). The GI50 (HOP-92) was 3.8 nM (active), the GI50 (MCF7) was 5 nM (active) and the GI50 (OVCAR-4) was 2.86 nM (active). For the same compound, the GI50 (RPMI-8226) was 5.19 nM (active), the GI50 (A549) was 3.94 nM (active) and the GI50 (NCI-H226) was 3.76 nM (active). The GI50 (SK-MEL-5) was 3.8 nM (active), the GI50 (UACC-257) was 6.46 nM (active) and the GI50 (DU-145) was 3.98 nM (active). For the same compound, the GI50 (HCT-15) was 3.62 nM and the GI50 (KM12) was 3.37 nM (active).

With `C=C1C(C)C2C(Cc3ccccc3)NC(=O)C23OC(=O)/C=C\CC(=O)CCC(C)C/C=C/C3C1O` (stereo not given) the GI50 (DMS-273) was 2340 nM (inactive), the GI50 (T47D) was 635 nM (active) and the GI50 (SK-OV-3) was 6050 nM (inactive). The GI50 (OVCAR-8) was 2540 nM (inactive), the GI50 (HCC 2998) was 6190 nM (inactive) and the GI50 (SN12C) was 1930 nM (inactive). The GI50 (K562) was 757 nM (active), the GI50 (HOP-92) was 581 nM (active) and the GI50 (OVCAR-4) was 2310 nM (inactive). For the same compound, the GI50 (A549) was 4410 nM (inactive), the GI50 (NCI-H226) was 1920 nM (inactive) and the GI50 (SK-MEL-5) was 3710 nM (inactive). The GI50 (UACC-257) was 1360 nM (inactive), the GI50 (HCT-15) was 1280 nM and the GI50 (KM12) was 2880 nM (inactive).

With `Nc1ccc(C(=O)Nc2ccccc2N)cc1` [DINALINE] the GI50 (DMS-273) was 59700 nM (inactive), the GI50 (SK-OV-3) was > 100000 nM (inactive) and the GI50 (OVCAR-8) was 8990 nM (inactive). For the same compound, the GI50 (HCC 2998) was 17500 nM (inactive), the GI50 (SN12C) was 60000 nM (inactive) and the GI50 (K562) was 14100 nM (inactive). The GI50 (SF-539) was 30400 nM (inactive), the GI50 (ACHN) was 31700 nM (inactive) and the GI50 (HOP-92) was 37900 nM (inactive). The GI50 (MCF7) was 20900 nM (inactive), the GI50 (OVCAR-4) was 20200 nM (inactive) and the GI50 (RPMI-8226) was 5680 nM (inactive). For the same compound, the GI50 (A549) was 38600 nM (inactive), the GI50 (NCI-H226) was > 78500 nM (inactive) and the GI50 (SK-MEL-5) was 16300 nM (inactive). For the same compound, the GI50 (UACC-257) was 17700 nM (inactive), the GI50 (DU-145) was 41700 nM (inactive) and the GI50 (HCT-15) was 54000 nM. The GI50 (KM12) was 44500 nM (inactive).

With `CO[C@H]1[C@H](O)[C@H](O[C@H]2CC[C@@]3(C)[C@H](CC[C@@H]4[C@@H]3CC[C@]3(C)[C@@H](C5=CC(=O)OC5)CC[C@]43O)C2)O[C@@H](C)[C@@H]1O` [NERIIFOLIN] the GI50 (DMS-273) was 0.548 nM (active), the GI50 (T47D) was 0.628 nM (active) and the GI50 (SK-OV-3) was 1.08 nM (active). The GI50 (OVCAR-8) was 1.08 nM (active), the GI50 (HCC 2998) was 9.4 nM (active) and the GI50 (SN12C) was 0.211 nM (active). For the same compound, the GI50 (SF-539) was 0.569 nM (active), the GI50 (ACHN) was 0.224 nM (active) and the GI50 (HOP-92) was 1.23 nM (active). The GI50 (MCF7) was 0.76 nM (active), the GI50 (OVCAR-4) was 0.28 nM (active) and the GI50 (RPMI-8226) was 1.11 nM (active). For the same compound, the GI50 (A549) was 0.379 nM (active), the GI50 (NCI-H226) was 5.96 nM (active) and the GI50 (SK-MEL-5) was 0.838 nM (active). For the same compound, the GI50 (UACC-257) was 1.67 nM (active), the GI50 (DU-145) was < 0.1 nM (active) and the GI50 (HCT-15) was 1.12 nM. The GI50 (KM12) was 1.52 nM (active).
